The target in assay [1] is GDP-bound NRAS wild-type protein (Homo sapiens, UniProt P01111). Briefly: Binding to NRAS by surface plasmon resonance (SPR), Single Cycle Kinetics. The settings on record: SPR. For orientation: Surface plasmon resonance follows binding to a sensor surface in real time, without labels.
Assay [2] concerns the target GDP-bound HRAS wild-type protein (Homo sapiens, UniProt P01112). Briefly: Binding to HRAS by surface plasmon resonance (SPR), Single Cycle Kinetics. The settings on record: SPR.
Where [3] appears, read: KD ratio, GDP-bound NRAS wild-type vs GDP-bound KRAS wild-type.
[4] abbreviates: KD ratio, GDP-bound HRAS wild-type vs GDP-bound KRAS wild-type.

Where a SMILES comes first, the peptide text is derived from it. Bridges are numbered along the chain shown (N, C = ends). [ ]: non-standard residue; d: D form. The star is where a group is joined. hPhe(3-Cl-4-CF3) = N[C@@H](CCc1ccc(C(F)(F)F)c(Cl)c1)C(=O)O; NEtPhe(4-CF3) = CCN[C@@H](Cc1ccc(C(F)(F)F)cc1)C(=O)O; NPrPhe(4-Me) = CCCN[C@@H](Cc1ccc(C)cc1)C(=O)O; NMeGly(cPent) = CN[C@H](C(=O)O)C1CCCC1; NMeD = CN[C@@H](CC(=O)O)C(=O)O; NMeL = CN[C@@H](CC(C)C)C(=O)O; Ac6c = NC1(C(=O)O)CCCCC1; Morpholide = C1CN(*)CCO1; NMeA = CN[C@@H](C)C(=O)O; Ac5c = NC1(C(=O)O)CCCC1; Aze = O=C(O)[C@@H]1CCN1; NEtG = CCNCC(=O)O; Sar = CNCC(=O)O

Chain of GDP-bound HRAS wild-type protein (P01112 whole entry): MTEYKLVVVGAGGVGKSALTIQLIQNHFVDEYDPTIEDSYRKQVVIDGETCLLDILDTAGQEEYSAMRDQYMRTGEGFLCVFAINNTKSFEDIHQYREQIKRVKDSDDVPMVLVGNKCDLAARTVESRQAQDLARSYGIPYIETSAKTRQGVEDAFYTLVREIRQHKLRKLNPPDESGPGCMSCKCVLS
Chain of GDP-bound NRAS wild-type protein (P01111 whole entry): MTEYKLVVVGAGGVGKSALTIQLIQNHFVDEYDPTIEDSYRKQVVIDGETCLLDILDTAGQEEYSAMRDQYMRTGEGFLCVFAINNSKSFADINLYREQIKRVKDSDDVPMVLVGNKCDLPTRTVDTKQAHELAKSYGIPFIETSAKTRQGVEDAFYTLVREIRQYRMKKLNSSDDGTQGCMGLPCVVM

Regarding `CCCN1C(=O)CN(CC)C(=O)CN(C)C(=O)[C@H]([C@@H](C)CC)NC(=O)[C@H](CC(C)C)N(C)C(=O)C[C@@H](C(=O)N2CCOCC2)N(C)C(=O)[C@H](C2CCCC2)N(C)C(=O)C2(CCCC2)NC(=O)[C@@H]2CCCN2C(=O)[C@H](CCc2ccc(C(F)(F)F)c(Cl)c2)NC(=O)CN(CC)C(=O)[C@@H]1Cc1ccc(C)cc1` [PP0069] ([NMeL]I[Sar][NEtG][NPrPhe(4-Me)][NEtG][hPhe(3-Cl-4-CF3)]P[Ac5c][NMeGly(cPent)][NMeD]-Morpholide; lactam N-11), the “NRAS/KRAS (ratio of KD for GDP-bound NRAS wild-type to KD for KRAS)” value in assay [1] is “C (A compound having a KD ratio of 0.1 or more and less than 3 is denoted as C)”. In assay [2], the “HRAS/KRAS (ratio of KD for GDP-bound HRAS wild-type to KD for KRAS)” value was “C (A compound having a KD ratio of 0.1 or more and less than 3 is denoted as C)”.

`CCC[C@H]1C(=O)N[C@@H](C2CCCC2)C(=O)N(C)CC(=O)N(C)[C@H]2C/C=C\CCN(C2=O)[C@@H](Cc2ccc(C)cc2)C(=O)N(C)CC(=O)N[C@@H](CCc2ccc(C(F)(F)F)c(OC)c2)C(=O)N2CC3(CC3)C[C@H]2C(=O)NC2(CC(C)(C)C2)C(=O)N(C)[C@@H](CC(C)(C)C)C(=O)N(C)[C@H](C(=O)N(C)C)CC(=O)N1C` [PP3010]: the “NRAS/KRAS (ratio of KD value with respect to GDP-bound NRAS wild-type protein to KD value with respect to KRAS)” value in assay [1] (GDP-bound wild-type proteins) was “B (a compound having 3 or more and less than 10 is denoted as B)”. Moreover, the “HRAS/KRAS (ratio of KD value with respect to GDP-bound HRAS wild-type protein to KD value with respect to KRAS)” value in assay [2] (GDP-bound wild-type proteins) was “B (a compound having 3 or more and less than 10 is denoted as B)”.

Take `CCO[C@@H]1C[C@H]2C(=O)NC3(CC(C)(C)C3)C(=O)N(C)[C@@H](C3CCCC3)C(=O)N(C)[C@H](C(=O)N(C)CC)CC(=O)N(C)[C@H]3CCC/C=C/c4ccc(cc4)C[C@@H](C(=O)N(C)CC(=O)N[C@@H](CCc4cc(F)c(C(F)(F)F)c(F)c4)C(=O)N2C1)N1CC/C=C\C[C@@H](C1=O)N(C)C(=O)CN(C)C(=O)[C@H]([C@@H](C)CC)NC3=O` [PP1835]: the “NRAS/KRAS (ratio of KD value for NRAS to KD value for KRAS)” value in assay [1] (setting [3]) is “A (a compound having 10 or more and less than 20 is denoted as A)”. In addition, the “HRAS/KRAS (ratio of KD value for HRAS to KD value for KRAS)” value in assay [2] (setting [4]) is “B (a compound having 3 or more and less than 10 is denoted as B)”.

With `CC[C@H](C)[C@@H]1NC(=O)[C@H](CC(C)C)N(C)C(=O)C[C@@H](C(=O)N2CCOCC2)N(C)C(=O)[C@H](C2CCCC2)N(C)C(=O)C2(CCC2)NC(=O)[C@@H]2C[C@@H](C(F)(F)F)CN2C(=O)[C@H](CCc2cc(F)c(C(F)(F)F)c(F)c2)NC(=O)CN(C)C(=O)[C@H](Cc2ccc(C(F)(F)F)cc2)N2CCCCC[C@@H](C2=O)N(C)C(=O)CN(C)C1=O` [PP0818], the “NRAS/KRAS (ratio of KD value with respect to NRAS to KD value with respect to KRAS)” value in assay [1] (setting [3]) is “B (a compound having 3 or more and less than 10 is denoted as B)”. The “HRAS/KRAS (ratio of KD value with respect to HRAS to KD value with respect to KRAS)” value in assay [2] (setting [4]) is “B (a compound having 3 or more and less than 10 is denoted as B)”.

Take `CCO[C@@H]1C[C@H]2C(=O)NC3(CCC3)C(=O)N(C)[C@@H](C3CCCC3)C(=O)N(C)[C@H](C(=O)N(C)C)CC(=O)N(C)[C@@H](CC3CCC3)C(=O)N[C@@H]([C@@H](C)CC)C(=O)N(C)CC(=O)N(C)[C@H]3CCCCCN(C3=O)[C@@H](Cc3ccc(C(F)(F)F)cc3)C(=O)N(C)CC(=O)N[C@@H](CCc3cc(F)c(C(F)(F)F)c(F)c3)C(=O)N2C1` [PP0668]: the “NRAS/KRAS (ratio of KD value with respect to GDP-bound NRAS wild-type protein to KD value with respect to KRAS)” value in assay [1] is “B (a compound having 3 or more and less than 10 is denoted as B)”. Moreover, the “HRAS/KRAS (ratio of KD value with respect to GDP-bound HRAS wild-type protein to KD value with respect to KRAS)” value in assay [2] is “B (a compound having 3 or more and less than 10 is denoted as B)”.

For the compound `CCCCO[C@@H]1C[C@H]2C(=O)NC3(CCC3)C(=O)N(C)[C@@H](C3CCCC3)C(=O)N(C)[C@H](C(=O)N3CCOCC3)CC(=O)N(C)[C@@H](CC(C)C)C(=O)N[C@@H]([C@@H](C)CC)C(=O)N(C)CC(=O)N(C)[C@H]3CCCCCN(C3=O)[C@@H](Cc3ccc(C(F)(F)F)cc3)C(=O)N(C)CC(=O)N[C@@H](CCc3cc(F)c(C(F)(F)F)c(F)c3)C(=O)N2C1` [PP1004], the “NRAS/KRAS (ratio of KD value with respect to NRAS to KD value with respect to KRAS)” value in assay [1] (setting [3]) is “B (a compound having 3 or more and less than 10 is denoted as B)”. For the same compound, in assay [2] (setting [4]), the “HRAS/KRAS (ratio of KD value with respect to HRAS to KD value with respect to KRAS)” value was “B (a compound having 3 or more and less than 10 is denoted as B)”.

Consider `CC[C@H](C)[C@@H]1NC(=O)[C@H](CC(C)C)N(C)C(=O)C[C@@H](C(=O)N2CCOCC2)N(C)C(=O)[C@H](C2CCCC2)N(C)C(=O)C2(CCCCC2)NC(=O)[C@@H]2CCCN2C(=O)[C@H](CCc2ccc(C(F)(F)F)c(Cl)c2)NC(=O)CN(C)C(=O)[C@H](Cc2ccc(C(F)(F)F)cc2)N(CC)C(=O)[C@@H]2CCN2C(=O)[C@H](C)N(C)C1=O` [PP0222] ([NMeL]I[NMeA][Aze][NEtPhe(4-CF3)][Sar][hPhe(3-Cl-4-CF3)]P[Ac6c][NMeGly(cPent)][NMeD]-Morpholide; lactam N-11), for which the “NRAS/KRAS (ratio of KD for GDP-bound NRAS wild-type to KD for KRAS)” value in assay [1] was “C (A compound having a KD ratio of 0.1 or more and less than 3 is denoted as C)”. In assay [2], the “HRAS/KRAS (ratio of KD for GDP-bound HRAS wild-type to KD for KRAS)” value is “C (A compound having a KD ratio of 0.1 or more and less than 3 is denoted as C)”.
